Patent publication US7402595B2, “JNK inhibitor” (Takeda Pharmaceutical Company Limited, priority 2002, dated 2008)

Legend:
ERK1 = ERK1 (Homo sapiens, UniProt P27361); assay: Inhibitory action on ERK1; format: biochemical
p38α = p38α (Homo sapiens, UniProt Q16539); assay: Inhibitory action on p38α; format: biochemical
human JNK1 = biological target: T1, human JNK1 (Homo sapiens, UniProt P45983); assay: Measurement of JNK inhibitory activity (32P uptake into cJUN by active JNK1); format: biochemical; details: 2.5 μM ATP, 30° C., 60 min
T1 construct: His6 (Met-Ala-His6, read from primer JNK1-U) (N); made in house; host or cells: Sf-21 insect cells (baculovirus BAC-HJNK1 co-infected with BAC-caMKK7); cJUN substrate from E. coli JM109
Method: (4) Preparation of Active JNK1
Sf-21 cells were seeded to achieve 1×10^6 cells/ml in 100 ml of Sf-900 II SFM medium (GIBCO BRL) containing 10% fetal calf serum and cultured at 27° C. for 24 hrs. The recombinant baculovirus virus stock BAC-HJNK1 and BAC-caMKK7 were added by 0.2 ml each, and the cells were further cultured for 60 hrs. The cells were separated from the culture solution by centrifugation (3000 rpm, 10 min.) and washed twice with PBS. The cells were suspended in 10 ml of Lysis buffer (25 mM HEPES (pH 7.5), 1% Triton X, 130 mM NaCl, 1 mM EDTA, 1 mM DTT, 25 mM β-glycerophosphate, 20 μM leupeptin, 1 mM APMSF, 1 mM sodium orthovanadate) and ruptured by 4 times of treatment with a homogenizer (POLYTRON) at 20000 rpm, 30 seconds each. Active JNK1 was purified from a supernatant obtained by centrifugal separation (40000 rpm, 45 min.) by the use of Anti-FLAG M2 Affinity Gel (Sigma).
(5) Preparation of Recombinant cJUN
Escherichia coli JM109 (Toyobo Co., Ltd.) was transformed with a plasmid pGEJUN to give ampicillin resistant pGEJUN/JM109. The pGEJUN/JM109 strain was cultured overnight in 150 ml of LB medium (10 g/l tripton, 5 g/l yeast extract, 10 g/l sodium chloride) containing 50 μg/ml ampicillin at 200 rpm, 37° C. The culture solution (15 ml) was added to a fresh LB medium (150 ml) and cultured at 37° C. for 2 hrs. at 200 rpm. 1 mM IPTG (Wako Pure Chemical Industries, Ltd.) was added and the cells were further cultured for 6 hrs. The culture solution was centrifuged at 8000 rpm for 10 min. and bacterial cells were recovered, washed with PBS and frozen at −80° C. The cells were suspended in 20 ml of lysis buffer (B-PER bacterial protein extraction reagent (Pierce), Protease inhibitor Complete (Boehringer)) and shaken at room temperature for 10 min. After centrifugal separation (14000 rpm, 15 min., 4° C.), and GST-cJUN fused protein was purified from the supernatant using Redipack GST Purification Module (Amersham-Pharmacia Biotech).
(6) Measurement of JNK Inhibitory Activity
A reaction solution (37.5 μl, 25 mM HEPES (pH 7.5), 10 mM magnesium acetate, 1 mM DTT) containing 50 ng of active JNK1 and 1 μg of cJUN […]. The test compound (2.5 μl) was added and the mixture was incubated at 30° C. for 5 min. […] After reacting at 30° C. for 60 min., 50 μl of 20% TCA solution was added to stop the reaction. The reaction solution was left standing at 0° C. for 20 min. and an acid-insoluble fraction was transferred onto a GF/C filter (Packard Japan) using Cell Harvester (Packard Japan), and washed with 250 mM phosphoric acid. After drying at 45° C. for 60 min., 40 μl of Microscint 0 (Packard Japan) was added and the radioactivity was measured on TopCount (Packard Japan).

Male wistar rats = assay: Pressure overloaded cardiac hypertrophy induced by an abdominal aortic stenosis (rat); format: in vivo; details: 10 mg/kg p.o. once a day, day 7 after aortic stenosis
Method: Preparation of the Model of Pressure Overloaded Cardiac Hypertrophy Induced by an Abdominal Aortic Stenosis (Rat)
Male wistar rats (body weight 260-300 g, CLEA Japan, Inc) were used. Under xylazine (10 mg/kg, i.p.) and ketamine (50 mg/kg, i.p.) anesthesia, abdominal aorta was exposed by median laparotomy. The left and right renal arteries were detached from the back, a 22G injection needle was put along the artery and it was ligated together with the aorta using a 2-0 silk thread just below the right renal artery. Then, the injection needle was removed to make a stenosis in the abdominal aorta. The abdomen was closed and the rats were housed commonly. For a sham group, the abdomen was closed without ligation (no stenosis) with a silk thread. A compound was suspended in a 0.5% methyl cellulose solution (2 ml/kg) and orally administered at a dose of 10 mg/kg 1 hr. before aortic stenosis and once a day from day 1 (the next day of stricture) to day 7 after operation. Vehicle (0.5% methyl cellulose solution) was administered instead of the compound to the sham group and control group. At day 7 after the preparation of aortic stenosis, the body weight was measured, and the heart was removed and then extracted under pentobarbital (50 mg/kg, i.p.) anesthesia. The right and left artium and right ventricle were excised from the heart and the wet weight of the left ventricle was measured. The left ventricle weight to body weight ratio of each rat was calculated and an increase from the average value of the sham group was calculated. Inhibitory rate of each group to a cardiac hypertrophy was calculated based on the control group as 100%.

T1 sequence (P45983 1-384 isoform P45983-2): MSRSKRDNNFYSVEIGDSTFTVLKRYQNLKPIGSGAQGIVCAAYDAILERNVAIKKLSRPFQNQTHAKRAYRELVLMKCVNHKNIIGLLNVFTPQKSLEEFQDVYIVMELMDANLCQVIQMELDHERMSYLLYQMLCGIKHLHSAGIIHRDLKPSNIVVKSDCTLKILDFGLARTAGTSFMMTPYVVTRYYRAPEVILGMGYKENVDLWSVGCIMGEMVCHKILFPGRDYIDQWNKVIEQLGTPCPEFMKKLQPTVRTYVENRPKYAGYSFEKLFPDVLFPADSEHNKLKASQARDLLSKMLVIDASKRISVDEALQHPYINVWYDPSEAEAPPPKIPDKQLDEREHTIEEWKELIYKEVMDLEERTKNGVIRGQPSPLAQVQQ
Sequence of ERK1 (P27361 whole entry): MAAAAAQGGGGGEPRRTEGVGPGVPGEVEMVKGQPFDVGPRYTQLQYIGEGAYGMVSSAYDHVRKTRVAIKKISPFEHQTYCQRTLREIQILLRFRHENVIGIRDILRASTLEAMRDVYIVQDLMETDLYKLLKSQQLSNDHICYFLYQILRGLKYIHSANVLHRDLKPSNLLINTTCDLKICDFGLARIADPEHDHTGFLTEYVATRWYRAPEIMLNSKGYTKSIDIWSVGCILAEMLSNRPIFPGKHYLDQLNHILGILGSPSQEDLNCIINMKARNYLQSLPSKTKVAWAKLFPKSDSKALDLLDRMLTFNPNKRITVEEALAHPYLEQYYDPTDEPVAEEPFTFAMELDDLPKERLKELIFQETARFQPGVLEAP
Sequence of p38α (Q16539 whole entry): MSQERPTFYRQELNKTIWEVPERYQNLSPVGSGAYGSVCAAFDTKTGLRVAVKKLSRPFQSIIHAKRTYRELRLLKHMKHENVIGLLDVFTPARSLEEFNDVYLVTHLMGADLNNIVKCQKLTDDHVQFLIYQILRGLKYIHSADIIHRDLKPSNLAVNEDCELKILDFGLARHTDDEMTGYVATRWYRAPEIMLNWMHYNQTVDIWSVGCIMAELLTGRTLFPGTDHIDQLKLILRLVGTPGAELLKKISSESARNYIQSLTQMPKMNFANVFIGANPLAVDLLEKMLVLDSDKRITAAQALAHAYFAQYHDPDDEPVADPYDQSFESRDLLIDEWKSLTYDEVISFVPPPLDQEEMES

Row | Structure (SMILES) | inhibition at 10 µM (ERK1) [%] | inhibition at 10 µM (p38α) [%] | IC50 (human JNK1) [nM] | Inhibitory rate (cardiac hypertrophy, control group as 100%) (Male wistar rats) | Left ventricular weight/body weight ratio (mg/g) amount of increase from sham group (Male wistar rats) | Left ventricular weight/body weight ratio (mg/g) value (Male wistar rats) [mg/g]
1 | COC(=O)c1c(-c2ccccc2)c2cc(Br)ccc2c(=O)n1Cc1ccc2c(c1)OCO2 [Example 24, 2-(benzo[1,3]dioxol-5-ylmethyl)-6-bromo-1-oxo-4-phenyl-1,2-dihydroisoquinoline-3-carboxylic acid methyl ester] | 39 | 18 | 18 | – | – | –
2 | COC(=O)c1c(-c2ccccc2)c2cc(Br)ccc2c(=O)n1Cc1ccc(S(N)(=O)=O)cc1 [Example 93, 6-bromo-1-oxo-4-phenyl-2-(4-sulfamoylbenzyl)-1,2-dihydroisoquinoline-3-carboxylic acid methyl ester] | 0 | 20 | 14 | – | – | –
3 | COC(=O)c1c(-c2ccccc2)c2cc(Br)ccc2c(=O)n1CC1CCN(C(C)=O)CC1 [Example 112, 2-(1-acetylpiperidin-4-ylmethyl)-6-bromo-1-oxo-4-phenyl-1,2-dihydroisoquinoline-3-carboxylic acid methyl ester] | 0.095 | 0 | 3000 | – | – | –
4 | COC(=O)c1c(-c2ccccc2)c2cc(Br)ccc2c(=O)n1Cc1ccc(NC(=O)CCC(=O)O)cc1 [Example 122, 6-bromo-2-[4-(3-carboxypropionylamino)benzyl]-1-oxo-4-phenyl-1,2-dihydroisoquinoline-3-carboxylic acid methyl ester] | 0 | 0 | 9.2 | – | – | –
5 | COC(=O)c1c(-c2ccccc2)c2cc(N)ccc2c(=O)n1Cc1ccc2c(c1)OCO2 [Example 156, 6-amino-2-(benzo[1,3]dioxol-5-ylmethyl)-1-oxo-4-phenyl-1,2-dihydroisoquinoline-3-carboxylic acid methyl ester] | 16 | 10 | 28 | – | – | –
6 | CCC(=O)c1c(-c2ccccc2)c2cc(Br)ccc2c(=O)n1Cc1ccc(S(C)(=O)=O)cc1 [Example 315, 6-bromo-2-(4-methanesulfonylbenzyl)-4-phenyl-3-propionyl-2H-isoquinolin-1-one] | 1 | 0 | 46 | rate 44%) | 0.29 ± 0.05 (Inhibitory mg/g | 2.19 ± 0.05
7 | CCN(CC)NC(=O)c1ccc(Cn2c(C(=O)OC)c(-c3ccccc3)c3cc(Br)ccc3c2=O)cc1 [Example 356, 6-bromo-2-[4-(N′,N′-diethylhydrazinocarbonyl)benzyl]-1-oxo-4-phenyl-1,2-dihydroisoquinoline-3-carboxylic acid methyl ester] | 0 | 0 | 7.5 | – | – | –
8 | CCCC(=O)c1c(-c2ccccc2)c2cc(Cl)ccc2c(=O)n1Cc1ccc(S(N)(=O)=O)cc1 [Example 455, 4-(6-chloro-3-butyryl-1-oxo-4-phenyl-1H-isoquinolin-2-ylmethyl)benzenesulfonamide] | 0 | 0 | 34 | – | – | –
9 | CCC(=O)c1c(-c2ccccc2)c2cc(Br)ccc2c(=O)n1Cc1ccc(C(=O)O)cc1 [Example 462, 4-(6-bromo-1-oxo-4-phenyl-3-propionyl-1H-isoquinolin-2-ylmethyl)benzoic acid] | 13 | 0 | 9.1 | – | – | –
10 | CCC(=O)c1c(-c2ccccc2)c2cc(Br)ccc2c(=O)n1Cc1ccc(-c2nnn[nH]2)cc1 [Example 495, 6-bromo-4-phenyl-3-propionyl-2-[4-(1H-tetrazol-5-yl)benzyl]-2H-isoquinolin-1-one] | 37 | 0 | 6.7 | – | – | –
11 | C/C(N)=C/C(=O)c1c(-c2ccccc2)c2cc(Br)ccc2c(=O)n1Cc1ccc(S(C)(=O)=O)cc1 [Example 546, 3-[(2Z)-3-aminobut-2-enoyl]-6-bromo-2-(4-methanesulfonylbenzyl)-4-phenyl-2H-isoquinolin-1-one] | 5 | 0 | 32 | – | – | –

Continued, in another order:

Row | inhibition at 10 µM (ERK1) [%] | inhibition at 10 µM (p38α) [%] | IC50 (human JNK1) [nM] | Structure (SMILES) | Inhibitory rate (cardiac hypertrophy, control group as 100%) (Male wistar rats) | Left ventricular weight/body weight ratio (mg/g) amount of increase from sham group (Male wistar rats) | Left ventricular weight/body weight ratio (mg/g) value (Male wistar rats) [mg/g]
12 | 0 | 2 | – | COC(=O)c1c(-c2ccccc2)c2cc(Br)ccc2c(=O)n1Cc1ccc(S(C)(=O)=O)cc1 [Example 94, 6-bromo-2-(4-methanesulfonylbenzyl)-1-oxo-4-phenyl-1,2-dihydroisoquinoline-3-carboxylic acid methyl ester] | rate 40%) | – | –
13 | 0 | 0 | 20 | COC(=O)c1c(-c2ccccc2)c2cc(Br)ccc2c(=O)n1Cc1ccc(C(=O)O)cc1 [Example 102, 6-bromo-2-(4-carboxybenzyl)-1-oxo-4-phenyl-1,2-dihydroisoquinoline-3-carboxylic acid methyl ester] | – | – | –
14 | 4 | 10 | 37 | COC(=O)c1c(-c2ccccc2)c2cc(Br)ccc2c(=O)n1Cc1ccc(C(=O)NCCN2CCCC2)cc1 [Example 141, 6-bromo-1-oxo-4-phenyl-2-[4-(2-(pyrrolidin-1-yl)ethylcarbamoyl)benzyl]-1,2-dihydroisoquinoline-3-carboxylic acid methyl ester] | – | – | –
15 | 0 | 0 | 39 | CC(=O)c1c(-c2ccccc2)c2cc(Br)ccc2c(=O)n1Cc1ccc(S(N)(=O)=O)cc1 [Example 415, 3-acetyl-6-bromo-4-phenyl-2-(4-sulfamoylbenzyl)-2H-isoquinolin-1-one] | – | – | –
16 | 22 | 0 | 16 | CCC(=O)c1c(-c2ccccc2)c2cc(Cl)ccc2c(=O)n1Cc1ccc(C(=O)O)cc1 [Example 463, 4-(6-chloro-1-oxo-4-phenyl-3-propionyl-1H-isoquinolin-2-ylmethyl)benzoic acid] | – | – | –
